These results are taken from patent publication US6593306B1, “Methods for modulation and inhibition of telomerase” (Board of Regents, The University of Texas Systems, priority 1995, dated 2003).

“Also recorded” adds a separate entry of the source. Where only a bound is given, the exact number is not on record here.

By IC50 is commonly meant the concentration that gives 50% inhibition.

The target of assay [1] is T1, human 293 cell telomerase (Homo sapiens, UniProt O14746).
T1 construct: with 20 μl of S100 enzyme extract; endogenous in cells; host or cells: 293 cells (transformed human embryonic kidney), S100 extract
T1 sequence (O14746 whole entry): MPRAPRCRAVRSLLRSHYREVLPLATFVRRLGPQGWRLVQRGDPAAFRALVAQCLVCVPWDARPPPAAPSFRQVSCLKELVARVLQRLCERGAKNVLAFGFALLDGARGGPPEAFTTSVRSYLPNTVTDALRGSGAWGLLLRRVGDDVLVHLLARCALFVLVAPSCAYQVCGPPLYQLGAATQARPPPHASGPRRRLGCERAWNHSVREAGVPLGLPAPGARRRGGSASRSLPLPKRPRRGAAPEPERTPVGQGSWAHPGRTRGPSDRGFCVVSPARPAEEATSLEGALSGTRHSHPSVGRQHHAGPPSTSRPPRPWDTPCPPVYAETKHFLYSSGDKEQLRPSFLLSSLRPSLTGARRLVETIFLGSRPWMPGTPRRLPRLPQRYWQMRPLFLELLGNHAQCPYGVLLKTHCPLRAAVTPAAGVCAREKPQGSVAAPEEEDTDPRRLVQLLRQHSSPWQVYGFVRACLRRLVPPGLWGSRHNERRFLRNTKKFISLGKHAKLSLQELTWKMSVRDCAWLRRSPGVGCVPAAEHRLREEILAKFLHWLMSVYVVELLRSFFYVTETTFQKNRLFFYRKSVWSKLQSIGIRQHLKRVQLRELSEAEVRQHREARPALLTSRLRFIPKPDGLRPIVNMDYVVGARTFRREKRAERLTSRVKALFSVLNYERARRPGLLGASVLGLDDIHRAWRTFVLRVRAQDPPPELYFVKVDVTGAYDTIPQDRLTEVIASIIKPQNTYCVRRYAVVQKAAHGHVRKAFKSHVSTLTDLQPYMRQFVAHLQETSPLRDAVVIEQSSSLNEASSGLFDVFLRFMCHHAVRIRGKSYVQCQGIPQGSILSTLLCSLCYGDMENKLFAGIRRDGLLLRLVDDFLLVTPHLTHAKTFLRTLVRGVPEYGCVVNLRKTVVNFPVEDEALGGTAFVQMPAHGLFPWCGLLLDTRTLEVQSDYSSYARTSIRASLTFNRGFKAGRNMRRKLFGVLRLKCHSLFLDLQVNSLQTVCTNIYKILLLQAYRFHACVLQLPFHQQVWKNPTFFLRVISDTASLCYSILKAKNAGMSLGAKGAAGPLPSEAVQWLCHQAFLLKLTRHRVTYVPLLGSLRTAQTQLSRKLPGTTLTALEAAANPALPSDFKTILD
T1 sequence (O60832 whole entry partner): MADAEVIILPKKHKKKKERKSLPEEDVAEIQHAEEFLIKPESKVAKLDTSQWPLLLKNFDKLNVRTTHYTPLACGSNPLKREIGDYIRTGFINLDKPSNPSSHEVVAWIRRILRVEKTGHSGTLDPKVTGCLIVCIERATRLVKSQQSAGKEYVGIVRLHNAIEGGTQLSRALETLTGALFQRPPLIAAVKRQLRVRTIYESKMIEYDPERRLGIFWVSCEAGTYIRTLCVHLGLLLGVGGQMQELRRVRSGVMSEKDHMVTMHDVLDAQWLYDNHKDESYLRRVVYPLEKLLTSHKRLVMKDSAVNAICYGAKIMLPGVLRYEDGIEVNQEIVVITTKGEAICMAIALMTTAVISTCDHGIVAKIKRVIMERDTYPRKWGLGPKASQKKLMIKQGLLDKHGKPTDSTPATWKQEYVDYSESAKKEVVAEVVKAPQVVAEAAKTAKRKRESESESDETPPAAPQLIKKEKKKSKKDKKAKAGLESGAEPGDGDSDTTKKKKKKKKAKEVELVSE
T1 sequence (Q9NPE3 whole entry partner): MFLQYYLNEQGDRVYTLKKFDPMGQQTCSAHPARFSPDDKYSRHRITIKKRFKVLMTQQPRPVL
T1 sequence (Q9NX24 whole entry partner): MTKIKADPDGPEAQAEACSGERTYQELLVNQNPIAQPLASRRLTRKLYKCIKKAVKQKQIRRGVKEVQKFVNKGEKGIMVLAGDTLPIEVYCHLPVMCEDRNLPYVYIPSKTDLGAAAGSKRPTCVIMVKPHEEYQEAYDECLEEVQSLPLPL
T1 sequence (Q9NY12 whole entry partner): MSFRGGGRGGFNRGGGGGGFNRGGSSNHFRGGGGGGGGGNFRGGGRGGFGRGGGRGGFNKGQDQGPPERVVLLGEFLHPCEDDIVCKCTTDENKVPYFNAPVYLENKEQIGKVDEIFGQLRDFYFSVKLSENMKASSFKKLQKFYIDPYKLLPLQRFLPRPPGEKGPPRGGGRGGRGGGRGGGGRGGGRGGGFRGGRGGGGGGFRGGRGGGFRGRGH
In words: Conventional telomerase assay (32P-dGTP as radiolabel substrate). It is filed as biochemical. Conditions: for Inhibition of 293 Telomerase, Conventional Assay *dGTP: up to 2 mM. On the procedure: Telomerase was prepared from transformed human embryonic kidney 293 cell line. Human embryonic kidney 293 cells were grown in Joklik's modified MEM niedium (Sigma, St Louis, Mo.) supplemented with 5% fetal bovine serum at 37° C. in a humidified atmosphere with 5% CO2. The cells were subcultured at 1-2×10^5 cells/ml twice a week. When the cells grew to approximately 1×10^6 cells/ml, the cells (˜2×10^9 cells) were centrifuged and transferred into polypropylene centrifuge (50 ml) tubes and kept on ice. The cells were then centrifuged in a (Beckman GS-6R) centrifuge at 1200 RPM for 10 minutes at 4° C., and resuspended in PBS. The washed cells were resuspended in 15 ml Hypobuffer Mix (10 mM HEPES, pH 8.0, 3 mM KCl, 1 mM MgCl2, 1 mM dithiothreitol, 1 μM leupeptin, 0.1 mM PMSF, 10 μM pepstatin, 0.83 μg/ml chymostatin, 0.83 μg/ml antipain, and 43.2 units/ml RNase Guard) and centrifuged. The cell pellets were resuspended in 0.75×volumes Hypobuffer [Hypobuffer Mix+40 units/ml RNase Guard (Pharmacia, N.J.) to allow the cells to swell. The cell suspensions were homogenized to allow the telomerase to “leak” into the cytosolic fraction. The lysate was then poured into new, autoclaved, 3 ml polyallomer ultracentrifuge tubes and centrifuged at 100,000×g for 1 hour at 4° C. A top lipid layer was carefully removed and discarded, and the supernatant was collected. 1/50 of the volume of 5 M NaCl was added to the clear supernatant fluid to achieve a final concentration of 0.1 M. Sterile glycerol was added until the final glycerol concentration was 20%. The enzyme solution was aliquoted into Eppendorf tubes and quickly frozen in liquid nitrogen and stored at −70° C.
The assay is based on the ability of the telomerase enzyme in the S100 fractions to recognize an 18-base DNA primer with the DNA sequence (TTAGGG)3. DNA polymerization initiates from the 3′-OH group of the oligonucleotide. By reading from its complementary internal RNA template, telomerase adds a repeated set of 5′-TTAGGG-3′ to the original 18-base primer. Non-synchronous “starts” and “terminations” among the different enzyme complexes result in a degenerative set of different length DNA primers occurring in 6-base increments. Incorporation of [α-^32P]dGTP at the guanine positions of the 5′-TTAGGG-3′ sequence allows the newly synthesized DNA fragments to be visualized by autoradiography. The resulting image forms the characteristic “ladder” structure that is used to identify telomerase activity. The images are scanned using a phosphoimager or laser densitometer (Molecular Dynamics, Sunnyvale, Calif.). Comparisons of the total volumes under the corresponding peaks are used to quantitate the total amount of [α-^32P] incorporated in the primer extension reaction.
The telomerase assay was initiated by mixing 20 μl of 2×reaction mix (100 mM Tris-OAc, pH 8.5, 100 mM KOAc, 10 mM β-mercaptoethanol, 2 mM spermidine, 2 mM MgCl2, 2 mM dATP, 2 mM dTTP, 2 μM oligo primer, potential inhibitors of interest at the appropriate concentration, and 50 μCi [α^32-P]dGTP) with 20 μl of S100 enzyme extract. The reaction mixture was then incubated at 30° C. for 1 hour. The reaction was stopped by incubating sequentially with 50 μl of the stop solution (10 mM Tris pH 7.5, 20 mM EDTA, 0.1 mg/ml RNase A) and 50 μl of deproteinase solution (10 mM Tris pH 7.5, 0.5% SDS, 0.3 mg/ml Proteinase K). The mixture was extracted with 50% phenol/50% chloroform (v/v). The DNA was then precipitated by adding 2.5×volumes of cold EtOH and letting it stand overnight at −70° C. The DNAs were separated on an 8% polyacrylamide/7M urea denaturing gel at 1600 V for 1.5 hours. The gel was dried and exposed to Kodak XAR-5 film to gel in −70° C. Typical autoradiographic exposures required 3-14 days.

Assay [2] addresses T2, human telomerase (Homo sapiens, UniProt O14746).
T2 construct: telomerase in S100 extracts of transformed human fetal kidney tumor 293 cells (a processive telomerase); endogenous in cells; host or cells: human cells, (S100 extract)
Put plainly: Cell-free telomerase inhibition, conventional or modified assay not stated. It is filed as biochemical. On the procedure: Selected nucleoside triphosphates were tested in one or both of the “conventional” or “modified” telomerase assays described in Methods using the human processive and the CHO non-processive telomerases. Initially, three chain-terminators were selected: 2′,3′-dideoxythymidine triphosphate (ddTTP), 3′-fluoro-2′,3′-dideoxythymidine triphosphate (F-ddTTP), and 3′-azido-2′-, 3′-dideoxythymidine triphosphate (AZ-ddTTP) as prototype agents to investigate whether they could inhibit telomerase activity. The three compounds are dTTP analogs without a 3′-OH group for subsequent chain elongation. They may either incorporate into the telomere sequence and terminate further chain elongation or compete directly with dTTP for the substrate binding site in the telomerase reaction. In either case, telomerase activity is inhibited.

Assay [3] concerns transformed human embryonic kidney 293 cells. Put plainly: Growth inhibition (MTT), 293 cells. It is filed as cell-based. Conditions: HEK293, 144 h, 6 days. The protocol:
(§1) Exponentially growing cells (1-2×10^3 cells, unless specified otherwise) in 0.1 ml medium were seeded on day 0 in a 96-well microtiter plate. On day 1, 0.1 ml aliquots of medium containing graded concentrations of test analogs were added in duplicate to the cell plates. After incubation at 37° C. in a humidified incubator for 6 days, the plates were centrifuged briefly and 100 μl of the growth medium was removed. Cell cultures were incubated with 50 μl of 3-(4,5-dimethylthiazol-2-yl)-2,5-diphenyl-tetrazolium bromide, (MTT) at a concentration of 1 mg/ml in Dulbecco's phosphate buffered saline (PBS)) for 4 hr at 37° C. The resulting purple formazan precipitate was solubilized with 200 μl of 0.04 N HCl in isopropyl alcohol. Absorbance was monitored in a BioRad Model 3550 Microplate Reader at a test wavelength of 570 nm and a reference wavelength of 630 nm. The absorbance was transferred to a PC 486 computer. The IC50 values were determined by a computer program (EZ-ED50) that fits all the data to the following four-parameter logistic equation: [formula]
(§2) where Amax is the absorbance of control cells, Amin is the absorbance of cells in the presence of highest agent concentration, Y is the observed absorbance, X is the agent concentration, IC50 is the concentration of agent that inhibits the cell growth by 50% of control cells (based on the absorbance) and n is the slope of the curve.
(§3) This is due to the extracellular dephosphorylation of the mono-, di-, or triphosphates by […] or 5′-nucleotidase back to the nucleoside. With this in mind, the inventors used only nucleosides rather than nucleoside triphosphates in these studies. Cultured tumor cells were incubated with selected nucleosides at graded concentrations for 6 days and the growth inhibition was determined by the standard MTT assay.

Assay [4] deals with human colon carcinoma HT29 cells. Put plainly: Growth inhibition (MTT), HT29 cells. The class given is cell-based. Conditions: HT-29, 144 h, 6 days. On the procedure:
as §1, §2, §3

T2 sequence (O14746 whole entry): as the sequence (O14746 whole entry) above
T2 sequence (O60832 whole entry partner): as the sequence (O60832 whole entry partner) above
T2 sequence (Q9NPE3 whole entry partner): as the sequence (Q9NPE3 whole entry partner) above
T2 sequence (Q9NX24 whole entry partner): as the sequence (Q9NX24 whole entry partner) above
T2 sequence (Q9NY12 whole entry partner): as the sequence (Q9NY12 whole entry partner) above

As to “5-Allylamino-2′-Deoxyuridine-5′-Triphosphate [NA021]”, the “% of Control” value in assay [1] (0.125 mM) is given as 51%; in assay [1] (0.25 mM), 70%; in assay [1] (0.5 mM), 43%; in assay [1] (1.0 mM), 33%; in assay [1] (2.0 mM), 30%; in assay [1] (10 mM (so in the source)), 100%. For the same molecule, the IC50 in assay [1] (293 cell telomerase) was around 500 µM. Besides, the “Inhibition of 293 Telomerase, Conventional Assay *dGTP” value (shortened to “Inhibition of 293 Telomerase”) in assay [1] is reported as “concentration dependent inhibition; also recorded: the telomerase activity is weak)”.

On to `Cc1cn([C@H]2C[C@H](O)[C@@H](COP(=O)(O)OP(=O)(O)OP(=O)(O)O)O2)c(=O)[nH]c1=S` [4-thiothymidine triphosphate], for which the “inhibition of human telomerase activity” value in assay [2] (1 mM) was “completely”.

With `Nc1ncnc2c1c(I)cn2[C@H]1C[C@H](O)[C@@H](CO)O1` [FS004, 7-Iodo-7-Deaza-2′-Deoxyadenosine], the IC50 in assay [3] turned out to be 0.319 µM; in assay [4], 1.88 µM.

As to `N#Cc1cn([C@H]2C[C@H](O)[C@@H](CO)O2)c2ncnc(N)c12` [FS005, 7-Cyano-7-Deaza-2′-Deoxyadenosine], the IC50 turned out to be 18.2 µM in assay [3] and 51.2 µM in assay [4].

Consider `Nc1ncnc2c1c(I)nn2[C@H]1C[C@H](O)[C@@H](CO)O1` [FS015, 7-Iodo-7-Deaza-8-Aza-2′-Deoxyadenosine], for which the IC50 turned out to be 1.88 µM in assay [3] and 8.09 µM in assay [4].

Consider `Nc1ncnc2c1c(Cl)cn2[C@H]1C[C@H](O)[C@@H](CO)O1` [FS017, 7-Chloro-7-Deaza-2′-Deoxyadenosine], for which the half-maximal inhibitory concentration (IC50) in assay [3] came to 3.32 µM; in assay [4], 15.6 µM.

For `Nc1ncnc2c1c(Br)cn2[C@H]1C[C@H](O)[C@@H](CO)O1` [FS018, 7-Bromo-7-Deaza-2′-Deoxyadenosine], the IC50 turned out to be 1.14 µM in assay [3] and 0.963 µM in assay [4].

Regarding `Nc1nc2c(c(Cl)cn2[C@H]2C[C@H](O)[C@@H](CO)O2)c(=O)[nH]1` [FS019, 7-Chloro-7-Deaza-2′-Deoxyguanosine], the results for the IC50 in assay [3] and in assay [4] were 237 µM and 109 µM, respectively.

On to `Nc1nc2c(c(Br)cn2[C@H]2C[C@H](O)[C@@H](CO)O2)c(=O)[nH]1` [FS020, 7-Bromo-7-Deaza-2′-Deoxyguanosine], for which the IC50 in assay [3] was determined as 180 µM; in assay [4], 170 µM.

Take `Nc1nc2c(c(I)cn2[C@H]2C[C@H](O)[C@@H](CO)O2)c(=O)[nH]1` [FS021, 7-Iodo-7-Deaza-2′-Deoxyguanosine]: the concentration for half-maximal inhibition (IC50) in assay [3] worked out at 63.4 µM; in assay [4], 78.8 µM.

For the molecule `Cc1cn([C@H]2C[C@H](O)[C@@H](CO)O2)c2nc(N)[nH]c(=O)c12` [FS022, 7-Methyl-7-Deaza-2′-Deoxyguanosine], the IC50 was determined as 489 µM in assay [3] and 196 µM in assay [4].

Take `Cc1cn([C@H]2C[C@H](O)[C@@H](CO)O2)c2ncnc(N)c12` [FS024, 7-Methyl-7-Deaza-2′-Deoxyadenosine]: the half-inhibitory concentration (IC50) in assay [3] is 109 µM; in assay [4] it was 99.6 µM.

Molecule `Cc1cn([C@H]2CC[C@@H](COP(=O)(O)OP(=O)(O)OP(=O)(O)O)O2)c(=O)[nH]c1=O` [NA001, 2′,3′-Dideoxythymidine-5′-Triphosphate] showed an IC50 in assay [1] (293 cells telomerase, competing dTTP 1-2 mM, inhibitor 0 to 2 mM) of around 500 µM.

Take `Nc1nc2c(ncn2[C@@H]2O[C@H](COP(=O)(O)OP(=O)(O)CP(=O)(O)O)[C@@H](O)[C@H]2O)c(=O)[nH]1` [NA011, Guanosine-5′-β,γ-Methylene Triphosphate]: the “% of Control” value in assay [1] (0.125 mM) is reported as 82%; in assay [1] (0.25 mM) it was 63%; in assay [1] (0.5 mM) it was 86%; in assay [1] (1.0 mM) it was 70%; in assay [1] (2.0 mM), 65%. Further, the “Inhibition of 293 Telomerase” value in assay [1] is “inactive; also recorded: No Inhibition (up to 2 mM)”.

Regarding `Nc1nc2c(ncn2[C@H]2C[C@H](O)[C@@H](COP(=O)(O)OP(=O)(O)CP(=O)(O)O)O2)c(=O)[nH]1` [NA014, 2′-Deoxyguanosine-5′-β,γ-Methylene Triphosphate], the remaining activity at 125 µM in assay [1] (0.125 mM, read-out: % of Control) stood at 60%. In assay [1] (0.25 mM, read-out: % of Control), the remaining activity at 250 µM amounted to 38%. Further, the remaining activity at 500 µM in assay [1] (0.5 mM, read-out: % of Control) amounted to 42%. The remaining activity at 1000 µM in assay [1] (1.0 mM, read-out: % of Control) amounted to 40%. Also, the remaining activity at 2000 µM in assay [1] (2.0 mM, read-out: % of Control) amounted to 28%. Further, the half-inhibitory concentration (IC50) is below 125 µM in assay [1] (293 cell telomerase) and 102 µM in assay [2] (Summary values, assay variant not stated, read-out: IC50).

Turning to `Nc1nc2c(ncn2[C@H]2C[C@H](O)[C@@H](COP(O)(O)=S)O2)c(=O)[nH]1` [NA015, 2′-Deoxyguanosine-5′-Phosphorothioate], the “Inhibition of 293 Telomerase” value in assay [1] is recorded as “No Inhibition (up to 2 mM)”.

`Nc1ncnc2c1ccn2[C@H]1C[C@H](O)[C@@H](CO)O1` [NA024, 7-Deaza-2′-Deoxyadenosine]: the half-maximal inhibitory concentration (IC50) in assay [3] is 533 µM; in assay [4], 146 µM.

In the case of `Nc1nc2c(ccn2[C@H]2C[C@H](O)[C@@H](CO)O2)c(=O)[nH]1` [NA025, 7-Deaza-2′-Deoxyguanosine], the half-inhibitory concentration (IC50) in assay [3] was 130 µM; in assay [4] it was 102 µM.

On to `Cn1c(N)nc2c(ccn2[C@H]2C[C@H](O)[C@@H](CO)O2)c1=S` [NA027, 1-Methyl-6-Thio-7-Deaza-2′-Deoxyguanosine], for which the IC50 in assay [3] came out at 161 µM; in assay [4], 310 µM.
